Results published in US6579967B1, “Receptor-selective somatostatin analogs” (The Salk Institute for Biological Studies, priority 1999, dated 2003).

The substances below were run against T1, human SSTR3 (Homo sapiens, UniProt P32745) (assay: Displacement of 125I-[Leu8,D-Trp22,Tyr25]-somatostatin-28 from cloned SSTR3 (receptor autoradiography on membrane pellets)). Conditions: qualitative statement.
T1 construct: expressed in transfected cells; host or cells: CHO-K1 cells and CCL39 cells
Type: binding
Protocol: Generally, recombinant cells expressing the receptor are washed and homogenized to prepare a crude protein homogenate in a suitable buffer, as known in the art. In a typical assay, an amount of protein from the cell homogenate is placed into a small volume of an appropriate assay buffer at an appropriate pH. Candidate substances, such as potential SRIF agonists and antagonists, are added to the admixture in convenient concentrations, and the interaction between the candidate substance and the receptor polypeptide is monitored.
Receptor binding assays are performed on cloned SRIF receptors as generally set forth in Raynor et al. supra. Using such assays, one can generate KD values which are indicative of the concentration of a ligand necessary to occupy one-half (50%) of the binding sites on a selected amount of a receptor or the like, or alternatively, competitive assays can generate IC50 values which are indicative of the concentration of a competitive ligand necessary to displace a saturation concentration of a target ligand being measured from 50% of binding sites. The peptide des-AA^1,2,4,5,12,13-[D-Agl^8(Me,2-naphthoyl)]SRIF inhibits the binding to SSTR3 of an iodinated SRIF-28 ligand that has strong affinity for all five receptors.
In vitro Bioassay: The various somatostatin analogs are tested in vitro for their ability to bind to isolated cloned receptors expressed on CHO-K1 cells and CCL39 cells. CHO-K1 cells are grown in Ham's F-12 medium, and CCL39 cells are grown in Dulbecco's modified Eagle's medium/Ham's F-12(1:1) mix, supplemented with 10% fetal bovine serum, 100 U/ml penicillin and 100 μg/ml streptomycin, in humidified air containing 5% CO2 at 37° C.
Cells are washed twice with and scraped into ice-cold 0.05 M Tris-HCl (pH 7.4), collected by centrifugation, and homogenized using a rotor/stator slash system in the same buffer. After centrifugation at 120 g for 5 min. at 4° C., the supernatant is collected and centrifuged again at 48,000 g for 30 min. at 4° C. The resulting pellet is resuspended in ice-cold Tris buffer, transferred into a microfuge tube, and centrifuged at 20,000 g for 15 min. at 4° C. After withdrawal of the supernatant, the membrane pellet is stored at −80° C.
Receptor autoradiography is performed on 20 μm thick cryostat sections of the membrane pellets, mounted on microscope slides, and then stored at −20° C. For each of the tested compounds, complete displacement experiments are performed with the universal somatostatin ligand radioligand ^125I-[Leu^8,D-Trp^22,Tyr^25]-somatostatin-28 that binds with strong affinity to all five receptors. Increasing concentrations of the unlabeled peptide are used ranging from 0.1-1000 nM. Unlabeled somatostatin-28 is run in parallel using the same increasing concentrations, as a control. IC50 values are calculated after quantification of the data using a computer-assisted image processing system as known in this art.
The potencies of certain SRIF analogs to inhibit radioligand binding of ^125I-[Leu^8,D-Trp^22,[…]]SRIF-28 to the various cloned SRIF receptors are shown in the following table wherein the IC50 values are given in nanomolar concentration.

T1 sequence (P32745 whole entry): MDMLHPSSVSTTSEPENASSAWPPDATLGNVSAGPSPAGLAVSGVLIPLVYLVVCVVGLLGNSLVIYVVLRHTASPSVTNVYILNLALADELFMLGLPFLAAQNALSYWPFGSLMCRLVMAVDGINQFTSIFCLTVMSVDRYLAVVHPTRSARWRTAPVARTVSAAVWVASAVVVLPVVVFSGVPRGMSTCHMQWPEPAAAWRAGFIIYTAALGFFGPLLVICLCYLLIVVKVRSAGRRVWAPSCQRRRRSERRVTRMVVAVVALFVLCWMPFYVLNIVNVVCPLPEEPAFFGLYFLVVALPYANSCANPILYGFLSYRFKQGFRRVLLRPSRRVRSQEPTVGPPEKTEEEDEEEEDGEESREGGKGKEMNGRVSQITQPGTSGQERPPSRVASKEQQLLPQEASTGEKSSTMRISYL

Substance | binding strength and selectivity for SSTR3, in words
(cyclo 3-14)Cbm-D-Cys-Phe-Agl(NMe,Bz)-D-2Nal-Lys-Thr-Phe-Cys-OH [Peptide No. 3C] | bind selectively to human SSTR3
(cyclo 3-14)Cbm-D-Cys-Phe-Tyr-D-Agl(Me,2Np)-Lys-Thr-Aph(Ac)-Cys-OH [Peptide No. 2M] | bind strongly and selectively to SSTR3
(cyclo 3-14)Cbm-D-Cys-Phe-Tyr-D-Agl(Me,2Np)-Lys-Thr-Aph(Cbm)-Cys-OH [Peptide No. 2N] | bind strongly and selectively to SSTR3
(cyclo 3-14)Cbm-D-Cys-Phe-Tyr-D-Agl(Me,2Np)-Lys-Thr-Aph-Cys-OH [Peptide No. 2L] | bind strongly and selectively to SSTR3
(cyclo 3-14)H-Cys-Lys-Asn-Phe-Tyr-D-Agl(Me,2Np)-Lys-Thr-Phe-Thr-Ser-Cys-OH [Peptide No. 2G] | binds selectively to SSTR3 but has fairly low affinity for all five SRIF receptors
(cyclo 3-14)H-Cys-Phe-Agl(Me,Bz)-D-1Nal-Lys-Thr-Phe-Cys-OH [Peptide No. 3B] | bind selectively to human SSTR3
(cyclo 3-14)H-D-Cys-Phe-Agl(NMe,Bz)-D-2Nal-Lys-Thr-Phe-Cys-OH [Peptide No. 3A] | bind selectively to SSTR3
